Experimental data from patent publication US9272993B2, “Naphthoquinone derivatives useful for prevention of amyloid deposits and treatment of diseases involving amyloidogenesis” (TECHNOLOGY INNOVATION MOMENTUM FUND (ISRAEL) LIMITED …, priority 2008, dated 2016).
Where two headings read alike, the source gives them in different places.

Columns and labels:
rat PC12 cell line = assay: MTT cell viability assay, cytotoxicity of soluble Aβ oligomers; type: cell-based; details: PC12 cells, 24 hours
Description: The cytotoxicity assay was performed with Rat PC12 cells (1.5×10^5 cells/mL) cultured in 96-well microplates (100 μL/well) and incubated overnight at 37° C. Samples with toxic oligomers from above were either dialyzed over night against PBS buffer or diluted with 9 volumes of an aqueous solution containing 33% methanol and 4% acetic acid, and incubated for 2 hours at 4° C. The samples were then centrifuged at 16,000 g for 40 minutes, the supernatant discarded and the pellet was resuspended in 5 mM NaH2PO4, 35 mM NaCl, pH 7.4. To each well we added 100 μL of 0.5 μM Aβ which formed toxic oligomers and prepared mixtures of inhibitors at various concentrations. Each experiment was repeated four times. Following incubation for 24 hours at 37° C., cell viability was evaluated using the MTT assay. Briefly, 20 μL of 5 mg/mL MTT dissolved in PBS was added to each well. […] Finally, color intensity was measured using an ELISA reader at 570 nm.
To further substantiate the inhibition induced by SY-81, it was tested whether SY-81 affects the toxicity of Aβ oligomers towards the rat PC12 cell line. Toxic oligomers were pre-incubated with different concentrations of SY-81 and toxicity was assessed using the MTT cell viability assay.

[1] = Locomotion (climbing) assay in Alzheimer's Drosophila model; type: in vivo, Drosophila melanogaster; details: medium with 0.75 mg/ml, control males lacking Aβ1-42 expression
Description: In vivo studies (fly maintenance) were performed with Drosophila melanogaster flies grown on a standard corneal-molasses medium and kept at 25° C. As Drosophila females can store sperm cells in their bodies, crosses were conducted using virgin females collected no longer than 8 hours after eclosion at 25° C. or 18 hours after eclosion at 18° C. Adult offspring (F1) from the crosses were collected up to 9 days after the beginning of their eclosion at 25° C. in order to avoid collection of offspring from the next generation (F2). […]
The locomotion (climbing) assay was carried out in fresh rearing vials, each containing 10 flies of a given class (four classes mentioned below). […] The percent of flies which climbed to the top of the test tube was then calculated over time. […] Data were analyzed using standard ANOVA statistical exams.
In order to assess the effect of SY-81 and SY-83 in the living organism, a Drosophila model of Alzheimer's was used, based on the work of Crowther et al. (ibid) who generated transgenic flies that express the human Aβ1-42 protein conditionally, using the UAS-Gal4 expression system. […] These defects included progressive decline of locomotion in aged flies (measured as ability to climb up), and marked shortening of life span. […]
Suppression of climbing defects was assessed as detailed below in flies genotype: Gal4-elav^c155 UAS-Aβ1-42. […]

Aβ1-42 = target: T1, Aβ1-42 (Homo sapiens, UniProt P05067); assay: Fluorescence anisotropy (polarization) titration with Aβ1-42; type: binding
T1 construct: Amyloid β-peptide(1-42) and amyloid β-peptide(1-40) trifluoroacetate salts; purchased Bachem (Bubendorf, Switzerland); host or cells: synthetic peptide
Description: For the florescence anisotropy studies SY-81 or SY-83 was dissolved in DMSO to a concentration of 1 μM and sonicated for 5 min. The solution was immediately mixed with aliquots of an Aβ1-42 stock solution (20 μM) to varying final polypeptide concentrations. SY-81 and SY-83 polarization measurements were carried out using an ISS K2 fluorimeter. The solutions were excited at 280 nm and emission was monitored at 350 nm. For each single point, at least five measurements were collected and their average values were used for the calculation. All experiments were performed in PBS (pH 7.4).
Increasing amounts of Aβ were titrated into a solution of SY-83 or SY-81 and the anisotropy 15 was determined (FIG. 4A-B).

Aβ1-40 fibrils = target: T2, Aβ1-40 fibrils (Homo sapiens, UniProt P05067); assay: Thioflavin T (ThT) fluorescence assay of fibril formation; type: biochemical
T2 construct: Amyloid β-peptide(1-42) and amyloid β-peptide(1-40) trifluoroacetate salts; purchased Bachem (Bubendorf, Switzerland); host or cells: synthetic peptide
Description: For executing the ThT florescence assay, Aβ1-40 was dissolved to a concentration of 10 μM in 10% DMSO in PBS (pH 7.4). Aβ was immediately mixed with or without different concentrations of SY-81 or SY-83 at a 1:1 ration to a final concentration of 5 μM. The samples were incubated at 37° C. and the fibrillogenesis rate was followed by thioflavin T (ThT) fluorescence assay (excitation at 450 nm, 2.5 nm slit, and emission at 480 nm, 5 nm slit), over a course of 11 days to two weeks. ThT was added to a 10-fold diluted sample and measured using a Jobin Yvon Horiba Fluoromax 3 fluorimeter.
Though there is a growing recognition that the early Aβ oligomer intermediates and not the fibrils are the most toxic amyloid forms in AD, this debate has not been completely resolved. […] This method provides quantitative information on amyloid fibrils growth. β-amyloid was allowed to form amyloid fibrils either in the presence of different concentrations of SY-83 (FIGS. 5A, C) or SY-81 (FIGS. 5B, D) or with no inhibitor (WT). The fibrillization process was followed for several days until a plateau state was reached. Fluorescence values were measured throughout.
An end point experiment was further conducted with various concentrations of SY-81 and SY-83 in order to determine IC50. An IC50 of 50 nM and 100 nM was measured for SY-81 and SY-83, respectively. […]

56 KD Aβ species = assay: Western blot of soluble brain fractions (6E10 antibody); type: in vivo; details: 5XFAD mice, 1 mg intraperitoneally every other day for 4 months

T1 sequence (P05067 672-713 limits assumed): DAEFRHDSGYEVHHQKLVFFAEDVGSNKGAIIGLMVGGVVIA
T2 sequence (P05067 672-711 limits assumed): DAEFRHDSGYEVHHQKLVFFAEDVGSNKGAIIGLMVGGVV

**Q.** What does the source list for O=C1C=C(NC(Cc2c[nH]c3ccccc23)C(=O)O)C(=O)c2ccccc21 (stereo not shown) [SY-81]?
**A.** toxic effect of the compound on its own (cell viability) (rat PC12 cell line): no toxic effect; climbing behavior of control males [1]: No effect; Kd (Aβ1-42; fluorescence anisotropy, PBS pH 7.4, read-out: affinity towards Aβ): ~90 nM; IC50 (Aβ1-40 fibrils; end point experiment, various concentrations, read-out: IC50 of fibril formation): 50 nM

**Q.** What does the source list for O=C1C(Cl)=C(NC(Cc2c[nH]c3ccccc23)C(=O)O)C(=O)c2ccccc21 (stereo not shown) [SY-83]?
**A.** reduction in 56 KD Aβ species in soluble brain fractions (56 KD Aβ species): 91%; Kd (Aβ1-42): ~900 nM; IC50 (Aβ1-40 fibrils): 100 nM
